We go through nine substances from EP4707393A1, “DOUBLE-STRANDED SIRNA, CONJUGATE THEREOF AND USE THEREOF” (CMS Research & Development Pte. Ltd., priority 2023, dated 2024).

Data set [1] has as its system human LPA gene (Genbank number: NM_005577.4). As to the kind of experiment: Inhibitory activity against LPA mRNA, psiCHECK-2 dual-luciferase reporter vector in Huh7 cells. It counts as cell-based. Particulars: Huh7 cells transfected with LPA_psiCHECK-2 plasmid, RNAiMAX transfection. The protocol: A stock solution was prepared by dissolving in PBS and stored at -20 °C.
The human LPA gene (Genbank number: NM_005577.4) was cloned into the psiCHECK™-2 vector.
Huh7 cells were cultured in DMEM (Gibco-11995-065, 500 mL) medium, supplemented with FBS (ExCellBio-FSP500, 57 mL), Penicillin-Streptomycin solution (Hyclone-SV30010, 5.7 mL), GlutaMAX™ (Gibco-35050-061, 5.7 mL) and Non-Essential Amino Acids Solution (Gibco-11140050, 5.7 mL).
On Day 1, a method for transfection of the LPA_PSICHECK (TM)-2 plasmid is briefly described as follows: Huh7 cells were washed with DPBS, followed by digestion with 0.05% trypsin, gently pipetted into single cells in DMEM containing 10% FBS, and counted. Plasmid DNA was transferred into Huh7 cells using Fugene HD. The transfected cells were seeded into 96-well plates at a density of 10,000 cells per well, with 100 µL culture medium per well. The cells were incubated overnight in a 5% CO2 incubator at 37 °C.
On Day 2, the test compounds were diluted serially with PBS to 3 concentrations.
RNAiMAX transfection reagent was prepared by blending homogeneously with Opti-MEM at a ratio of RNAiMAX: Opti-MEM=3:47 in a 15 mL centrifuge tube as needed. The compounds were mixed with the RNAiMAX/Opti-MEM (1:1) and incubated for 15 min. The compound-containing RNAiMAX/Opti-MEM mixture was diluted 10-fold with fresh medium and blended homogeneously.
The medium in each well was aspirated, and then 100 µL of the fresh compound-containing medium was added, and then incubated in a 5% CO2, 37 °C incubator.
Experimental procedures refer to DUAL-GLO® Dual Luciferase Assay System instructions, briefly described as follows: Taking out the cells from the incubator, aspirating and discarding the supernatant, adding 75µL fresh culture medium and 75µL detection reagent, shaking for 10 minutes in the dark, and after the cells had been fully lysed, transfering100µL sample to an opaque whiteboard for detecting the Firefly luminescence signal; adding 50 µL Dual-Glo®Stop & Glo® test reagent to each well and detecting the Renilla luciferase signal after shaking for 10 minutes in the dark. The ratio of the reporter signal to the internal control reporter signal was calculated for each well.
[formula] % Inhibition = (1-Sampleratio/RNAiMAXcontrolratio) × 100% [formula]
On the technique in general: In a reporter assay the amount or activity of a reporter protein is the signal.

The test system of data set [2] is hPBMCs. As to the kind of experiment: Immunogenicity test in hPBMCs (IL-6 and TNF-α ELISA of supernatant). The data set is classed as cell-based, human. The conditions noted are these: donor 1 hPBMCs, 18-20 h. How it is done:
1 Experimental material • 1.1 Double-stranded siRNA conjugates • 1.2 hPBMCs, purchased from Shanghai Sailybio Medical Co., LTD. • 1.3 Main reagents: Penicillin-Streptomycin (Cat. No.: 15140122), RNase-free water (Cat. No.: AM9938), IL-6 ELISA kit (Cat. No.: 555220), TNF-α ELISA kit (Cat. No.: 555212), LPS (Cat. No.: L2630), etc. 2 Experimental method • 2.1 Compound Preparation: Compounds were prepared as stock solutions with enzyme-free water. Compound weight = powder weight * purity. The concentration of prepared solutions was 900 µg/mL, followed by three-fold serial dilution with enzyme-free water. Each concentration was diluted 10-fold with 1640 medium, resulting in a final enzyme-free water content of 5.0%. • 2.2 Experimental procedure: • 2.2.1 PBMC cells were resuscitated one day in advance and incubated overnight in 1640 complete medium. • 2.2.2 On the day of the experiment, PBMC cells were centrifuged at 300 × g for 8 minutes, and the cell density was adjusted to 1.6 × 10^6 mL with 1640 complete medium. The cells were then added to a 96-well plate, 125 µL per well, and incubated in a 37 °C, 5% CO2 incubator for 15 minutes. • 2.2.3 The diluted test compounds were added to the 96-well plate according to the plate map, all in duplicate, 125 µL for each well; the positive control group and the blank group were added with an equal volume of 1640 complete culture medium containing the same amount of enzyme-free water. • 2.2.4 After gently shaking, the well plates were incubated in an incubator at 37 °C for 18-20 h. The supernatant was collected by centrifugation, and secretions of TNF-α and IL-6 were detected by ELISA. • 2.2.5 Data were analyzed using GraphPad Prism 8 software. 3 Experimental results Table 10. IL-6 and TNF-α levels in the cell supernatant of donor 1 hPBMCs treated with different doses of test compounds
A general note: In an ELISA, binding on a coated surface is turned into a signal by an enzyme label.

Consider “Z41: siRNA conjugate: sense SEQ ID NO:49, ligand D01 at 3' end of sense strand, antisense SEQ ID NO:79 (sense CAGCCCCTTATTGTTATACGA; antisense NCGTATNACAATAAGGGGCNGTT; ligand D01 at sense 3' end; listed as RNA; modified_base 1: mod_base = OTHER; note = 2'-O-methylcytidine; modified_base 2: mod_base = OTHER; note = 2'-O-methyladenosine; modified_base 3: mod_base = OTHER; note = 2'-O-methylguanosine; modified_base 4..7: mod_base = OTHER; note = 2'-O-me; note = n is B29; note = 2'-deoxycytidine; modified_base 4: mod_base = OTHER; note = 2'-O-methyluridine; m)”, for which the response in data set [1] was half-maximal at 0.09 nM (EC50). Besides, the figures for the IL-6 in data set [2] (5 µg/mL), in data set [2] (15 µg/mL) and in data set [2] (45 µg/mL) were 1362.7 pg/mL, 2424.8 pg/mL and 1537.6 pg/mL, respectively. Besides, the TNF alpha in data set [2] (5 µg/mL) is 37.3 pg/mL; in data set [2] (15 µg/mL), 94.0 pg/mL; in data set [2] (45 µg/mL) it was 44.7 pg/mL.
Substance “Z6: siRNA conjugate: sense SEQ ID NO:27, ligand D08 at 3' end of sense strand, antisense SEQ ID NO:57 (sense CCCTTATTGTTATACG; antisense TCGTANAACAATAAGGGGCTGTT; ligand D08 at sense 3' end; listed as RNA; modified_base 1..2: mod_base = OTHER; note = 2'-O-methylcytidine; modified_base 3: mod_base = OTHER; modified_base 4: mod_base = OTHER; note = 2'-O-methyluridine; modified_base 5: mod_base = OTHER; note = 2'-fluorou; modified_base 1: mod_base = OTHER; note = E-type vinylphosphonate-modified 2'-O-methyluridine; modified_base 2: mod_base = OTHER; note = 2'-fluorocytidine; note = 2'-O-methylguanosine; modified_base 4: mo)” had a 50% effective concentration (EC50) in data set [1] of 0.42 nM. In other words, the sub-nanomolar range.
The same measure, in the same setting: under “Z50: siRNA conjugate: sense SEQ ID NO:51, ligand D01 at 3' end of sense strand, antisense SEQ ID NO:86 (sense CCTGCCAAGCTTGGTCATCTA; antisense TCTAGATNACCAAGCTTGGCAGG; ligand D01 at sense 3' end; listed as RNA; modified_base 1..2: mod_base = OTHER; note = 2'-O-methylcytidine; modified_base 3: mod_base = OTHER; note = 2'-O-methyluridine; modified_base 4: mod_base = OTHER; note = 2'-O-methylguanosine; modified_base 5..6: mod_base = OTHER; note = 2'-O-m; modified_base 1: mod_base = OTHER; note = 2'-fluoroadenosine; modified_base 5: mod_base = OTHER; note = 2'-O-methyl)” stands 0.41 nM.
Take “Z2: siRNA conjugate: sense SEQ ID NO:28, ligand D08 at 3' end of sense strand, antisense SEQ ID NO:56 (sense CCCCTTATTGTTATAC; antisense ATCCCTCGTANAACAATAAGGGGCTGTT; 2'-OMe/2'-F modified, ligand at sense 3' end, full pattern not given here)”: the midpoint of the response in data set [1], the EC50, lay at 0.48 nM.
Same read-out and setting: under “Z14: siRNA conjugate: sense SEQ ID NO:27, ligand D08 at 3' end of sense strand, antisense SEQ ID NO:62 (sense CCCTTATTGTTATACG; antisense ATCCCTCGTANAACAATAAGGGGCTGTT; 2'-OMe/2'-F modified, ligand at sense 3' end, full pattern not given here)” stands 1.59 nM; under “Z21: siRNA conjugate: sense SEQ ID NO:36, ligand D01 at 3' end of sense strand, antisense SEQ ID NO:64 (sense NNCCCCTTATTGTTATACN; antisense TCTCGTANAACAATAAGGGGCTGTT; 2'-OMe/2'-F modified, ligand at sense 3' end, full pattern not given here)”, 0.44 nM; under “Z51: siRNA conjugate: sense SEQ ID NO:49, ligand D01 at 3' end of sense strand, antisense SEQ ID NO:87 (sense CAGCCCCTTATTGTTATACGA; antisense TCGTATNACAATAAGGGGCNGTT; ligand D01 at sense 3' end; listed as RNA; modified_base 1: mod_base = OTHER; note = 2'-O-methylcytidine; modified_base 2: mod_base = OTHER; note = 2'-O-methyladenosine; modified_base 3: mod_base = OTHER; note = 2'-O-methylguanosine; modified_base 4..7: mod_base = OTHER; note = 2'-O-me; note = 2'-O-methyluridine; note = 2'-deoxycytidine; modified_base 4: mod_base = OTHER; note = 2'-O-methyl)”, 0.31 nM.
For the substance “Z9: siRNA conjugate: sense SEQ ID NO:33, ligand D08 at 3' end of sense strand, antisense SEQ ID NO:56 (sense CCCTTATTGTTATACG; antisense ATCCCTCGTANAACAATAAGGGGCTGTT; ligand D08 at sense 3' end; listed as RNA; modified_base 1..2: mod_base = OTHER; note = 2'-O-methylcytidine; modified_base 3: mod_base = OTHER; modified_base 4..5: mod_base = OTHER; note = 2'-O-methyluridine; modified_base 6: mod_base = OTHER; note = 2'-O-me; modified_base 1: mod_base = OTHER; note = 2'-O-methyladenosine; modified_base 2: mod_base = OTHER; note = 2'-O-met)”, the EC50 in data set [1] came out at 1.77 nM. Against the preceding substance, the EC50 is about 5.7-fold higher.
The same measure, in the same setting: under “Z17: siRNA conjugate: sense SEQ ID NO:36, ligand D01 at 3' end of sense strand, antisense SEQ ID NO:63 (sense NNCCCCTTATTGTTATACN; antisense ATCCCTCGTANAACAATAAGGGGCTG; 2'-OMe/2'-F modified, ligand at sense 3' end, full pattern not given here)” stands 1.5 nM.

What is called EC50 is the concentration at which the effect is half-maximal. High values mean weaker potency, low ones greater potency.
